Results as given in patent publication US6054435A, “6-O-substituted macrolides having antibacterial activity” (priority 1999, dated 2000).
≈ marks a conversion by molar mass, not a printed value.

Experiments:
Assay in all cases: in vitro antibacterial activity (MIC), agar dilution
Format in all cases: cell-based
[1] = tested on: Staphylococcus aureus 1775; conditions: organism code GG; BHI agar, 35-37° C., 20 to 24 hours; unit assumed
Protocol: (§1) Representative compounds of the present invention were assayed in vitro for antibacterial activity as follows: Twelve petri dishes containing successive aqueous dilutions of the test compound mixed with 10 mL of sterilized Brain Heart Infusion (BHI) agar (Difco 0418-01-5) were prepared. Each plate was inoculated with 1:100 (or 1:10 for slow-growing strains, such as Micrococcus and Streptococcus) dilutions of up to 32 different microorganisms, using a Steers replicator block. […] In addition, a control plate, using BHI agar containing no test compound, was prepared and incubated at the beginning and end of each test.
(§2) An additional plate containing a compound having known susceptibility patterns for the organisms being tested and belonging to the same antibiotic class as the test compound was also prepared and incubated as a further control, as well as to provide test-to-test comparability.
(§3) After incubation, each plate was visually inspected. The minimum inhibitory concentration (MIC) was defined as the lowest concentration of drug yielding no growth, a slight haze, or sparsely isolated colonies on the inoculum spot as compared to the growth control.

[2] = tested on: Streptococcus Pneumonia 5649; conditions: organism code ZZA; BHI agar, 35-37° C., 20 to 24 hours; unit assumed
Protocol: as §1, §2, §3

[3] = tested on: Streptococcus Pneumonia ATCC6303; conditions: organism code XX; BHI agar, 35-37° C., 20 to 24 hours; unit assumed
Protocol: as §1, §2, §3

[4] = tested on: Staphylococcus aureus ATCC 6538P; conditions: organism code AA; BHI agar, 35-37° C., 20 to 24 hours; unit assumed
Protocol: as §1, §2, §3

[5] = tested on: Streptococcus agalactiae CMX 508; conditions: organism code KK; BHI agar, 35-37° C., 20 to 24 hours; unit assumed
Protocol: as §1, §2, §3

[6] = tested on: Staphylococcus aureus NCTC10649M; conditions: organism code EE; BHI agar, 35-37° C., 20 to 24 hours; unit assumed
Protocol: as §1, §2, §3

[7] = tested on: Streptococcus pyogenes 930; conditions: organism code MM; BHI agar, 35-37° C., 20 to 24 hours; unit assumed
Protocol: as §1, §2, §3

[8] = tested on: Streptococcus pyogenes EES61; conditions: organism code LL; BHI agar, 35-37° C., 20 to 24 hours; unit assumed
Protocol: as §1, §2, §3

[9] = tested on: Escherichia coli JUHL; conditions: organism code QQ; BHI agar, 35-37° C., 20 to 24 hours; unit assumed
Protocol: as §1, §2, §3

[10] = tested on: Nocardia Asteroides ATCC9970; conditions: organism code VV; BHI agar, 35-37° C., 20 to 24 hours; unit assumed
Protocol: as §1, §2, §3

[11] = tested on: Candida albicans CCH 442; conditions: organism code TT; BHI agar, 35-37° C., 20 to 24 hours; unit assumed
Protocol: as §1, §2, §3

[12] = tested on: Micrococcus luteus ATCC 4698; conditions: organism code PP; BHI agar, 35-37° C., 20 to 24 hours; unit assumed
Protocol: as §1, §2, §3

[13] = tested on: Mycobacterium smegmatis ATCC 114; conditions: organism code UU; BHI agar, 35-37° C., 20 to 24 hours; unit assumed
Protocol: as §1, §2, §3

[14] = tested on: Haemophilis Influenzae DILL AMP R; conditions: organism code WW; BHI agar, 35-37° C., 20 to 24 hours; unit assumed
Protocol: as §1, §2, §3

[15] = tested on: Streptococcus Pneumonia 5979; conditions: organism code ZZ; BHI agar, 35-37° C., 20 to 24 hours; unit assumed
Protocol: as §1, §2, §3

[16] = tested on: Streptococcus pyogenes PIU 2548; conditions: organism code NN; BHI agar, 35-37° C., 20 to 24 hours; unit assumed
Protocol: as §1, §2, §3

[17] = tested on: Staphylococcus epidermidis 3519; conditions: organism code HH; BHI agar, 35-37° C., 20 to 24 hours; unit assumed
Protocol: as §1, §2, §3

[18] = tested on: Escherichia coli SS; conditions: organism code RR; BHI agar, 35-37° C., 20 to 24 hours; unit assumed
Protocol: as §1, §2, §3

[19] = tested on: Streptococcus bovis A-5169; conditions: organism code JJ; BHI agar, 35-37° C., 20 to 24 hours; unit assumed
Protocol: as §1, §2, §3

[20] = tested on: Staphylococcus aureus A-5278; conditions: organism code CC; BHI agar, 35-37° C., 20 to 24 hours; unit assumed
Protocol: as §1, §2, §3

[21] = tested on: Streptococcus Pneumonia GYR 1171; conditions: organism code YY; BHI agar, 35-37° C., 20 to 24 hours; unit assumed
Protocol: as §1, §2, §3

[22] = tested on: Enterococcus faecium ATCC 8043; conditions: organism code II; BHI agar, 35-37° C., 20 to 24 hours; unit assumed
Protocol: as §1, §2, §3

[23] = tested on: Staphylococcus aureus A5177; conditions: organism code BB; BHI agar, 35-37° C., 20 to 24 hours; unit assumed
Protocol: as §1, §2, §3

[24] = tested on: Staphylococcus aureus CMX 642A; conditions: organism code DD; BHI agar, 35-37° C., 20 to 24 hours; unit assumed
Protocol: as §1, §2, §3

[25] = tested on: Staphylococcus aureus CMX 553; conditions: organism code FF; BHI agar, 35-37° C., 20 to 24 hours; unit assumed
Protocol: as §1, §2, §3

SMILES | MIC [1] [µg/mL] | MIC [2] [µg/mL] | MIC [3] [µg/mL] | MIC [4] [µg/mL] | MIC [5] [µg/mL] | MIC [6] [µg/mL] | MIC [7] [µg/mL] | MIC [8] [µg/mL] | MIC [9] [µg/mL] | MIC [10] [µg/mL] | MIC [11] [µg/mL] | MIC [12] [µg/mL] | MIC [13] [µg/mL] | MIC [14] [µg/mL] | MIC [15] [µg/mL] | MIC [16] [µg/mL] | MIC [17] [µg/mL] | MIC [18] [µg/mL] | MIC [20] [µg/mL] | MIC [23] [µg/mL] | also measured
CC[C@H]1OC(=O)[C@H](C)C(=O)[C@H](C)[C@@H](O[C@@H]2O[C@H](C)C[C@H](N(C)C)[C@H]2O)[C@](C)(OCC#Cc2ccc(-c3cncc(C(=O)N(C)C)c3)s2)C[C@@H](C)C(=O)[C@H](C)[C@H]2NC(=O)O[C@@]21C [Example 11] | > 100 | 1 (≈ 1.15 µM) | 0.03 (≈ 0.0346 µM) | 0.1 (≈ 0.115 µM) | 0.05 (≈ 0.0577 µM) | 0.2 (≈ 0.231 µM) | > 100 | 0.02 (≈ 0.0231 µM) | > 100 | 0.2 (≈ 0.231 µM) | > 100 | 0.2 (≈ 0.231 µM) | > 12.5 | 16 (≈ 18.5 µM) | 128 (≈ 148 µM) | 0.39 (≈ 0.45 µM) | 0.2 (≈ 0.231 µM) | 0.78 (≈ 0.9 µM) | > 100 | 0.2 (≈ 0.231 µM) | MIC [19]: 0.01 µg/mL (≈ 0.0115 µM); MIC [21]: 0.03 µg/mL (≈ 0.0346 µM); MIC [22]: 0.39 µg/mL (≈ 0.45 µM)
CC[C@H]1OC(=O)[C@H](C)C(=O)[C@H](C)[C@@H](O[C@@H]2O[C@H](C)C[C@H](N(C)C)[C@H]2O)[C@](C)(OC/C=C/c2ccc(-c3ccncn3)s2)C[C@@H](C)C(=O)[C@H](C)[C@H]2NC(=O)O[C@@]21C [Example 64] | > 100 | 0.25 (≈ 0.313 µM) | ≤ 0.004 | 0.05 (≈ 0.0626 µM) | 0.02 (≈ 0.025 µM) | 0.05 (≈ 0.0626 µM) | 3.1 (≈ 3.88 µM) | 0.01 (≈ 0.0125 µM) | 50 (≈ 62.6 µM) | 0.01 (≈ 0.0125 µM) | > 100 | 0.2 (≈ 0.25 µM) | 0.78 (≈ 0.976 µM) | 2 (≈ 2.5 µM) | 2 (≈ 2.5 µM) | 0.1 (≈ 0.125 µM) | 0.05 (≈ 0.0626 µM) | 0.39 (≈ 0.488 µM) | > 100 | 0.05 (≈ 0.0626 µM) | MIC [19]: ≤ 0.005 µg/mL; MIC [21]: ≤ 0.004 µg/mL
CC[C@H]1OC(=O)[C@H](C)C(=O)[C@H](C)[C@@H](O[C@@H]2O[C@H](C)C[C@H](N(C)C)[C@H]2O)[C@](C)(OCC#Cc2ccc(-c3cccnc3)s2)C[C@@H](C)C(=O)[C@H](C)[C@H]2NC(=O)O[C@@]21C [Example 2] |  |  |  | 0.05 (≈ 0.0628 µM) |  | 0.05 (≈ 0.0628 µM) |  |  |  | 0.05 (≈ 0.0628 µM) |  | 0.1 (≈ 0.126 µM) |  |  |  | 0.1 (≈ 0.126 µM) | 0.05 (≈ 0.0628 µM) | 0.1 (≈ 0.126 µM) |  | 0.05 (≈ 0.0628 µM) | MIC [24]: 0.05 µg/mL (≈ 0.0628 µM); MIC [25]: 0.05 µg/mL (≈ 0.0628 µM); MIC [22]: 0.05 µg/mL (≈ 0.0628 µM)
CC[C@H]1OC(=O)[C@H](C)C(=O)[C@H](C)[C@@H](O[C@@H]2O[C@H](C)C[C@H](N(C)C)[C@H]2O)[C@](C)(OCC#Cc2ccc(-c3ccccn3)s2)C[C@@H](C)C(=O)[C@H](C)[C@H]2N(N)C(=O)O[C@]12C [Example 36] | > 100 |  |  | 0.05 (≈ 0.0617 µM) |  | 0.1 (≈ 0.123 µM) |  |  |  |  | > 100 | 0.1 (≈ 0.123 µM) | 1.56 (≈ 1.92 µM) |  |  | 0.39 (≈ 0.481 µM) | 0.1 (≈ 0.123 µM) | 0.2 (≈ 0.247 µM) | > 100 | 0.05 (≈ 0.0617 µM) | 
CC[C@H]1OC(=O)[C@H](C)C(=O)[C@H](C)[C@@H](O[C@@H]2O[C@H](C)C[C@H](N(C)C)[C@H]2O)[C@](C)(OCC#Cc2ccc(-c3ccccn3)s2)C[C@@H](C)C(=O)[C@H](C)[C@H]2NC(=O)O[C@@]21C [Example 1] |  |  |  | 0.05 (≈ 0.0628 µM) |  | 0.1 (≈ 0.126 µM) |  |  |  |  |  | 0.1 (≈ 0.126 µM) |  |  |  | 0.1 (≈ 0.126 µM) | 0.1 (≈ 0.126 µM) | 0.1 (≈ 0.126 µM) |  |  | 
